{"source": "patent US8853151B2", "about": "“Pro-drug complexes and related methods of use” (The Regents of the University of Michigan, priority 2009, dated 2014)", "key": {"[1]": {"experiment": "Solubility of SN-38 pro-drug complex in comparison with SN-38", "format": "physicochemical", "source_text": "The solubility of SN-38 pro-drug complex\n[drawing 23] in comparison with SN-38 was investigated."}, "[2]": {"test_system": "cervical carcinoma cell line KB", "experiment": "Effect on cell growth with or without recombinant human DT-Diaphorase (DTD) in the growth medium, KB cells", "format": "cell-based", "source_text": "(§1) The redox-coupled release of free SN38 from the SN-38 pro-drug complex\n(§2) [drawing 24] using the enzyme DT-Diaphorase (DTD) was investigated. DTD is a cytosolic oxidoreductase which catalyzes the two-electron reduction of quinones using NADH or NADPH as electron donors (see, e.g., Phillips et al, Biochemical Pharmacology 68: 2107-2116 (2004); herein incorporated by reference in its entirety). As the DTD-induced reduction of quinones is known to take place even under normoxic conditions, the enzyme is used as a positive control for testing the release of drugs from quinone-linked drugs. Synthesized SN-38 pro-drug complex was incubated with recombinant human DTD (Sigma) added into the cell growth medium in the presence of different concentration of the SN-38 pro-drug complex. The effect of the drug on cell growth was determined in two different human cell lines, the cervical carcinoma cell line KB, and the breast cancer cell line SKBR3."}, "[3]": {"test_system": "breast cancer cell line SKBR3", "experiment": "Effect on cell growth with or without recombinant human DT-Diaphorase (DTD) in the growth medium, SKBR3 cells", "format": "cell-based", "source_text": "as §1, §2"}, "[4]": {"settings": "absence of DTD, up to 300 nM prodrug"}}, "note": "Where two headings read alike, the source gives them in different places."}
{"smiles": "CCc1c2c(nc3ccc(OC(=O)N(C)CCN(C)C(=O)OCc4c5c(n(CC(=O)NCCOCCOCCOCCn6cc(CCC(=O)CCCC(=O)NCCCCC7NC(=O)[C@@H](Cc8ccc(O)cc8)NC(=O)[C@H](CC(=O)O)NC(=O)CNC(=O)[C@H](CCCNC(=N)N)NC7=O)nn6)c4C)C(=O)C=C(OC)C5=O)cc13)-c1cc3c(c(=O)n1C2)COC(=O)[C@]3(O)CC", "note": "(stereo partly shown) [SN-38 pro-drug complex]", "values": [{"measurement": "solubility", "setting": "[1]; in water, read-out: solubility", "result": 100, "unit": "µg/mL"}, {"measurement": "solubility compared with SN38", "setting": "[1]; ratio pro-drug complex / SN38", "result": ">= 50 times"}, {"measurement": "cytotoxicity", "setting": "[2]; [4]", "result": "essentially non-cytotoxic"}, {"measurement": "cytotoxicity on redox mediated activation (FIG. 8)", "setting": "[2]; redox mediated activation", "result": "leads to KB cell cytotoxicity"}, {"measurement": "cytotoxicity", "setting": "[3]; [4]", "result": "essentially non-cytotoxic"}, {"measurement": "cytotoxicity on redox-mediated activation (FIG. 9)", "setting": "[3]; redox-mediated activation", "result": "leads to SKBR3 cell cytotoxicity"}]}
{"smiles": "CCc1c2c(nc3ccc(O)cc13)-c1cc3c(c(=O)n1C2)COC(=O)[C@]3(O)CC", "note": "[SN38, 7-Ethyl-10-hydroxy-camptothecin, reference compound]", "values": [{"measurement": "solubility", "setting": "[1]; water", "result": "~2", "unit": "µg/mL"}]}
